{
  "source": "paper PMC5578959",
  "about": "“Selective LRRK2 kinase inhibition reduces phosphorylation of endogenous Rab10 and Rab12 in human peripheral mononuclear blood cells” (Scientific Reports, 2017)",
  "assay_in_all_cases": "KiNativ profiling in human PBMCs",
  "format_in_all_cases": "binding",
  "key": {"[1]": {"system": "T1, MAST4", "T1 construct": "purchased ActivX Technologies (KiNativ)", "conditions": "Lys2"}, "[2]": {"system": "T2, MAP2K2", "T2 construct": "purchased ActivX Technologies (KiNativ)", "conditions": "Lys2"}, "[3]": {"system": "T3, CLK3", "T3 construct": "purchased ActivX Technologies (KiNativ)", "conditions": "ATP Loop"}},
  "data": [
    {"smiles": "Cn1cc(-c2c[nH]c3ncnc(N4CCOCC4)c23)cc1C#N", "note": "[PFE-360]", "values": [
      {"measurement": "% Inhibition", "setting": "[1]; 0.1µM", "value": -5.7, "unit": "%"},
      {"measurement": "% Inhibition", "setting": "[1]; 1µM", "value": -21.4, "unit": "%"},
      {"measurement": "% Inhibition", "setting": "[2]; 0.1µM", "value": -11.4, "unit": "%"},
      {"measurement": "% Inhibition", "setting": "[2]; 1µM", "value": 20.4, "unit": "%"},
      {"measurement": "% Inhibition", "setting": "[3]; 0.1µM", "value": 3.8, "unit": "%"},
      {"measurement": "% Inhibition", "setting": "[3]; 1µM", "value": -6.8, "unit": "%"}
    ]}
  ]
}
